Source: patent US4385175A, “Esters of retinoic acid and azetidinone derivatives” (Bristol-Myers Company, priority 1982, dated 1983)
Where two headings read alike, the source gives them in different places.

Tested on: squamous metoplasia and keratinization in organ cultures of trachea derived from vitamin A-deficient hamsters
Test: inhibition of squamous metaplasia and keratinization (reversal of keratinization) in tracheal organ cultures
Format: cell-based, hamster
Details: Mesocricetus auratus, read-out: Reversal of Keratinization ED50
[1] = median effective dose: dose required for reversal of keratinization of 50% of the explants, by probit analysis, hamster trachea organ culture

SMILES	EC50 [1]	EC50
CC1=C(/C=C/C(C)=C/C=C/C(C)=C/C(=O)OCc2ccccc2N2C(=O)[C@@H](N=[N+]=[N-])[C@H]2/C=C/c2ccccc2)C(C)(C)CCC1 (relative stereo) [Compound IV]	0.407 nM	
CC1=C(/C=C/C(C)=C/C=C/C(C)=C/C(=O)OCc2cccc3c2N2C(=O)[C@@H](NC(=O)Cc4ccccc4)[C@H]2CO3)C(C)(C)CCC1 (relative stereo) [Compound VI]	0.39 nM	
CC1=C(/C=C/C(C)=C/C=C/C(C)=C/C(=O)OCc2ccccc2N2C(=O)[C@@H](NC(=O)Cc3ccccc3)[C@H]2/C=C/c2ccccc2)C(C)(C)CCC1 (relative stereo) [Compound V]	0.198 nM	
CC1=C(/C=C/C(C)=C/C=C/C(C)=C/C(=O)OC(C(=O)c2ccccn2)c2ccccn2)C(C)(C)CCC1 (centres unmarked) [Compound VII]	0.31 nM	
CC1=C(/C=C/C(C)=C/C=C/C(C)=C/C(=O)O)C(C)(C)CCC1 [β-All-trans-retinoic acid, reference compound]		0.115 nM
